According to PubChem BioAssay (NCI):
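Five concentrations, 48 hours, 96-well plates. GI50 = concentration required for 50% inhibition of growth. TGI denotes the concentration required for complete inhibition of growth.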

Columns and labels:
Test in all cases: NCI-60 cell line screen, 48 h
U251 CNS = tested on: U251 CNS
RPMI-8226 leukemia = tested on: RPMI-8226 leukemia
BT-549 breast = tested on: BT-549 breast
SK-MEL-28 melanoma = tested on: SK-MEL-28 melanoma
UACC-257 melanoma = tested on: UACC-257 melanoma
HOP-92 NSCLC = tested on: HOP-92 NSCLC
SF-268 CNS = tested on: SF-268 CNS
MCF7 breast = tested on: MCF7 breast
TK-10 renal = tested on: TK-10 renal
SF-539 CNS = tested on: SF-539 CNS

SMILES	GI50 (U251 CNS) [µM]	TGI (U251 CNS) [µM]	GI50 (RPMI-8226 leukemia) [µM]	TGI (RPMI-8226 leukemia) [µM]	GI50 (BT-549 breast) [µM]	TGI (BT-549 breast) [µM]	GI50 (SK-MEL-28 melanoma) [µM]	TGI (SK-MEL-28 melanoma) [µM]	GI50 (UACC-257 melanoma) [µM]	TGI (UACC-257 melanoma) [µM]	GI50 (HOP-92 NSCLC) [µM]	TGI (HOP-92 NSCLC) [µM]	GI50 (SF-268 CNS) [µM]	TGI (SF-268 CNS) [µM]	GI50 (MCF7 breast) [µM]	TGI (MCF7 breast) [µM]	GI50 (TK-10 renal) [µM]	TGI (TK-10 renal) [µM]	GI50 (SF-539 CNS) [µM]	TGI (SF-539 CNS) [µM]
CCC(=O)Nc1ccc(C)c(-c2ccc(C(=O)NCC3CC3)cc2)c1	> 25	> 25	> 25	> 25	> 25	> 25	> 25	> 25	> 25	> 25	> 25	> 25	> 25	> 25	> 25	> 25	> 25	> 25	> 25	> 25
C/C(=C\c1cc(C(F)(F)F)n(-c2ccc(N)cc2)n1)[C@@H]1C[C@@H]2O[C@]2(C)CCC[C@H](C)[C@H](O)[C@@H](C)C(=O)C(C)(C)[C@@H](O)CC(=O)O1	0.0477	> 11.1	< 0.0106	> 11.1	0.065	3.44	0.547	> 11.1	0.965	> 11.1	0.258	> 11.1	0.0502	> 11.1	0.0041	> 11.1	0.0578	7.95	0.025	0.336
NS(=O)(=O)CC1CC[CH-]CC1.[Cl-].[Cl-].[Cl-].[Cl-].[Cl-].[Sb+5].c1ccncc1	> 100	> 100	> 100	> 100	> 100	> 100	> 100	> 100	> 100	> 100	> 100	> 100	> 100	> 100	> 100	> 100	> 100	> 100	> 100	> 100
O=C(/C=C/C12c3ccccc3C(c3ccccc31)C1C(=O)NC(=O)C12)c1ccc(F)cc1 (stereo not given)	1.63	3.07	1.62	4.39	1.69	3.42	1.85	3.39	1.79	3.37	1.59	3.55	1.65	3.2	1.66	4.48	2.69	6.43	1.7	3.11
CCCCCCCCCNC(=O)/C=C/c1ccc(O)c(O)c1	10.2	23.3	0.61	19.4	32.4	> 100	19.7	> 100	29.5	69.6	2.52	17.3	10.9	31.9	28.3	> 100	11.1	39.7	15.1	38.2
C=C1C(=O)O[C@H]2[C@H]1CC/C(COC(=O)C(C)c1ccc(CC(C)C)cc1)=C\CC[C@@]1(C)O[C@@H]21 (stereo not given in full)	1.49	2.89	0.278	1.19	0.533	1.89	1.63	3	1.66	3.32	0.747	2.14	1.72	3.5	0.791	2.49	1.74	3.19	1.6	2.97
CC1(C)NCCC[C@]2(C)[C@H]3CC[C@@H]4[C@H]5[C@H](C(=O)/C=C/c6ccccn6)CC[C@]5(CO)CC[C@@]4(C)[C@]3(C)CC[C@@H]12	1.68	3.24	2.16	5.58	2.27	11	3.75	15.7	3.99	19	1.99	7.73	11.2	31.2	1.85	5.8	4.8	24.8	1.78	3.6
CC(=O)O[C@H](C[C@H](C(C)C)N(C)C(=O)[C@@H](NC(=O)[C@H]1CCCN1C)C(C)C)c1nc(C(=O)N[C@@H](Cc2ccccc2)C[C@H](C)C(=O)O)c(C)s1	< 0.00167	> 16.7	< 0.00167	> 16.7	< 0.00167	0.151	0.00557	> 16.7	> 16.7	> 16.7	12.4	> 16.7	< 0.00167	> 16.7	< 0.00167	> 16.7	> 16.7	> 16.7	< 0.00167	0.0256
CSC(=S)OC1CC(n2cnc3c(NC(=O)c4ccccc4)ncnc32)OC1CO[Si](C)(C)C(C)(C)C (stereo not given)	–	44.4	–	43	–	> 100	–	> 46.4	–	> 56.2	–	44.4	–	> 56.2	–	40.3	–	> 56.2	–	> 46.4
Cc1cc2c(C(N)=O)c(N)n(-c3c(C)ccc(O)c3C)c2nc1C	4.23	34.1	3.48	> 100	3.06	16.7	4.73	> 100	3.13	51.6	1	14.1	9.28	52.9	3.41	> 100	4.11	23.9	0.434	2.88
O=C(Nc1cccc(-c2ccc(Cl)c(C(F)(F)F)c2)c1)C1CCN(Cc2cccc3cccnc23)CC1	1.71	3.29	2.07	5.4	1.65	3.18	1.75	3.14	1.83	3.62	1.36	2.83	1.79	3.55	1.44	2.95	1.63	3.16	1.76	3.16
N#Cc1cc(S(=O)(=O)Nc2nnc(-c3ccccc3)c(-c3ccccc3)n2)c(SCc2ccccc2)cc1Cl	17.8	33.1	16.4	51.9	30.9	89.6	35.2	91.3	24.2	46.4	18.4	58.7	29.2	> 100	31	> 100	22.9	46.2	30.2	62.4
NS(=O)(=O)c1ccc(N(/C=C/C(=O)C(F)(F)F)Cc2ccc(Cl)cc2)cc1	26.5	75.8	26.2	89.1	23.6	62.6	29.3	> 100	24.1	52.8	16.1	40.9	74.3	> 100	93.9	> 100	23.5	55.8	17.4	34
N#Cc1c(N)nc(N2CCOCC2)c(C#N)c1-c1ccccn1	> 100	> 100	> 50.3	> 100	> 100	> 100	> 100	> 100	> 100	> 100	> 52.8	> 100	> 100	> 100	> 100	> 100	> 100	> 100	> 100	> 100
CC1=C(/C=C/C(C)=C/C=C/C(C)=C/C(=O)O)C(C)(C)CCC1	–	70.7	–	57.7	–	63	–	> 82.2	–	99.7	–	> 83.4	–	> 75.1	–	> 77.9	–	> 100	–	75.7
CC(=O)c1c(CO[N+](=O)[O-])n([O-])c2ccccc2[n+]1=O	–	> 100	–	> 100	–	> 100	–	> 100	–	> 100	–	> 100	–	> 100	–	> 100	–	> 100	–	> 100
CC(C(N)C(=O)NC(C(=O)O)C1OC(n2ccc(=O)[nH]c2=O)C(O)C1O)C(O)c1ccc(O)cn1 (stereo not given)	–	> 100	–	> 100	–	> 100	–	> 100	–	> 100	–	> 100	–	> 100	–	> 100	–	> 100	–	> 100
CN1CCN(c2ccc(NC(=O)c3cncnc3Nc3ccc(OCc4ccccn4)c(Cl)c3)cc2)CC1	2.64	8.53	1.33	6.7	5.18	11.1	0.749	1.64	0.718	1.61	3.11	9.28	5.03	11.2	2.8	8.53	6.78	15.3	1.09	3.64
Cc1cn2c(/C=N/N=C(N)N)c(-c3ccccn3)nc2s1	19.1	45.1	7.53	> 84.7	7.69	25.9	11.6	36.9	7.78	17.9	7.35	16.9	8.62	45.4	10.2	> 68.2	16.1	32.8	3.35	14.4
CCc1ccc(C(=Nc2ccc(N(C)C(=O)CN3CCN(C)CC3)cc2)c2c(O)[nH]c3ccc(C(=O)OC)cc23)cc1	0.59	2.02	0.424	1.67	1.32	2.65	1.17	2.42	1.54	3.2	1.23	2.63	1.18	2.8	0.256	1.4	0.233	2.11	0.426	1.56
Cc1ccc(C(=O)/C(=C\c2ccc([N+](=O)[O-])cc2)S(=O)Cc2ccc(Cl)cc2)cc1 (stereo not given)	1.56	3	1.29	4.62	1.73	3.22	1.76	3.4	1.89	3.89	1.64	3.45	1.75	3.42	1.38	3.68	1.86	3.89	1.85	3.37
Cc1cc(-c2ccccn2)cc(C)c1/C=C/c1cncc(-c2nn[nH]n2)c1	> 25	> 25	> 25	> 25	> 25	> 25	> 25	> 25	> 25	> 25	> 18.4	> 25	> 25	> 25	> 25	> 25	> 25	> 25	> 25	> 25
CC1(N)CCN(c2cnc(-c3cccc(Cl)c3Cl)c(N)n2)CC1	9.02	91.2	13.8	40.1	10.8	26.2	16.3	32.3	17	35.2	0.553	5.44	22.7	> 100	17.2	37.2	2.8	53.2	12.9	31.5
Oc1c(Cl)cc(Cl)cc1C(c1cc(Cl)cc(Cl)c1O)C(Cl)(Cl)Cl	2.52	14.4	1.8	54.2	2.27	6.93	4.18	17.8	3.33	9.18	1.52	5.94	2.34	13.8	2.7	14.2	4.26	16	3.17	13
CCn1c(-c2nonc2N)nc2c(C#CC(C)(C)O)ncc(OC[C@H]3CCCNC3)c21	0.533	21.9	17.4	50.5	6.85	28.6	11.7	27.1	20.8	41.2	9.73	36.8	16.1	37.4	1.05	22.9	2.03	42.6	0.313	16.9
